Laboratory results reported in patent publication EP0571511B1, “NOVEL UREAS AND THIOUREAS, PREPARATION THEREOF AND APPLICATION IN THERAPY” (priority 1991, dated 1992).

Target: acétylcholinestérase (Homo sapiens, UniProt P22303)
Assay: biochemical
Conditions: Inhibition de l'activité de l'acétylcholinestérase; read-out: IC₅₀
Description: Les composés de l'invention ont été soumis à des essais pharmacologiques qui ont montré leur intérét en tant qu'inhibiteurs de l'acétylcholinestérase.

Chain of acétylcholinestérase (P22303 32-614, species assumed): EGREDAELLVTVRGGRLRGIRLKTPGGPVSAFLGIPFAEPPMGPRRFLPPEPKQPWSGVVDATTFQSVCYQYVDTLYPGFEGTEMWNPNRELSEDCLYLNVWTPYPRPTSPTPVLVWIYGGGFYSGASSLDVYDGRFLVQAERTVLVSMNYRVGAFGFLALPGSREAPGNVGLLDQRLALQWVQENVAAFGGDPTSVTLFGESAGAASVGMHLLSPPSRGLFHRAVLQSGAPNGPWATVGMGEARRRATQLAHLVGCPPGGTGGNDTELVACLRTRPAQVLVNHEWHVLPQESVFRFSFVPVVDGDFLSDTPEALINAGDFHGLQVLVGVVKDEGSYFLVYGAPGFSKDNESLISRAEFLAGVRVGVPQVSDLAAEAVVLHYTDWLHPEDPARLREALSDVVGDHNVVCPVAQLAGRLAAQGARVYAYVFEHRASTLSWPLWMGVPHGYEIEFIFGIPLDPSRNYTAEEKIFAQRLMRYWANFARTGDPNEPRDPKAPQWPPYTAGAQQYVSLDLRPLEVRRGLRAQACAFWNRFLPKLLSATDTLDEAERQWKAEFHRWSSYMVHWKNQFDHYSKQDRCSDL

Question: Which IC50 does the source give for `O=C(NC(=S)NCCC1CCN(Cc2ccccc2)CC1)c1ccc2c(c1)OCO2` [compound 12] here?
Answer: 18 nM
